Values quoted from earlier work in US20160235660A1, “COSMETIC COMPOSITION AND USE THEREOF” (EMS S.A., priority 2015, published 2016).

Tested on: facial melasma
Conditions: hydroquinone 4% vs 0.75% kojic acid cream

## Oc1ccc(O)cc1 [hydroquinone, 1,4-dihydroxybenzene]
  action in the treatment of melasma compared with kojic acid: superiority
